Measurements published in patent US20100034878A1 (priority 2006, published 2010).
Read-outs that look alike come from different tables or passages of the source.

Experiments:
[1] = target: CYP 2C9 (Homo sapiens, UniProt P11712); conditions: cited from earlier work
[2] = daily vitamin K supplementation and INR stability in patients with very unstable INRs; type: in vivo; conditions: eight patients with very unstable INR on VKA
Experimental: The recommended dietary allowance for vitamin K is approximately 70 mcg. […] In addition, the administration of a VKA often requires that the patient take a half tablet on some days while other patients may require 1.5 or 2 tablets on other days. Consequently, the workable range of vitamin K per tablet is 10 mcg to 600 mcg, the preferred range is 25 mcg to 400 mcg, and the most preferred is 50 mcg to 200 mcg.
It was tested whether daily vitamin K supplementation would improve stability of the INR in patients who had very unstable INRs. […] The VKORC1 status itself was not assessed because the test was done prior to the VKORC1 gene being identified. INR values were collected for several months before and after daily vitamin K was started in eight patients with very unstable INR values.

[3] = in vivo; cited from earlier work
[4] = in vivo; cited from earlier work; remark: listed apart in the source

Chain of CYP 2C9 (P11712 whole entry): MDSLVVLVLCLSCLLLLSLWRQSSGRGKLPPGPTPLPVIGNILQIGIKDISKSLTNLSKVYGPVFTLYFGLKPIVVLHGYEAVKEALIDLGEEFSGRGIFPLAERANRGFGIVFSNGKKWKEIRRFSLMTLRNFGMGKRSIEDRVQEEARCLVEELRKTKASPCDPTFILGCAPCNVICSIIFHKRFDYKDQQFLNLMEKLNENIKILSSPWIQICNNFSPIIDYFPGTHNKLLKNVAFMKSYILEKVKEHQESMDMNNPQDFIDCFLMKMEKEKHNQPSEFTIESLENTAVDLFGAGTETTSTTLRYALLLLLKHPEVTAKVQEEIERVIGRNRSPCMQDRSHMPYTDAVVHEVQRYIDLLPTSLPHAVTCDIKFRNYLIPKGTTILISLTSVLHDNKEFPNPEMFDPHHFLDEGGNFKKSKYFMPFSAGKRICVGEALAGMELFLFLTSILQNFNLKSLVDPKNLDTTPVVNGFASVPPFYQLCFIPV

Compound: CC(=O)C[C@H](c1ccccc1)c1c(O)c2ccccc2oc1=O (single isomer, unassigned) [R-isomer of warfarin]
- metabolism by the 2C9 enzyme [1]: not metabolized by the 2C9 enzyme

Compound: vitamin K
- fluctuation of INRs after starting daily vitamin K supplement [2]: fluctuated less
- percent of INRs in range after versus before starting daily vitamin K ([2]; daily vitamin K supplement, INR collected several months before and after): more than doubled

Compound: CC(=O)C[C@@H](c1ccccc1)c1c(O)c2ccccc2oc1=O (single isomer, unassigned) [S-isomer of warfarin]
- metabolism by the 2C9 enzyme ([1]; hepatic cytochrome P-450 2C9): almost totally metabolized by the 2C9 enzyme

Compound: CCC(c1ccccc1)c1c(O)c2ccccc2oc1=O (racemic) [Racemic phenprocoumon, phenprocoumon]
- fraction eliminated as the parent drug [3]: approximately 40%
- elimination half-life [4]: approximately 156 hrs
